One compound from patent publication US10076508B2, “Pharmaceutical compositions for inhibiting antibiotic-resistant microorganisms and uses thereof” (Peptide Cham Biotech Co., Ltd., priority 2015, dated 2018) can be followed below.

Structures are written as SMILES.

The test system of one data set is Staphylococcus aureus. The experiment in a line: Antibiotics activity test (bacteria concentration OD630 over time). It is filed as cell-based. To be noted: 1 μg/ml Fmoc-Ala-OPfp in culture medium, 8 hours after bacterial inoculation, 37° C.; compared with ampicillin and vancomycin. The procedure: The bacteria were cultured for antibiotics activity test. (FIG. 3) The cultured cells were added with specific concentration of Fmoc-Ala-OPfp, Ampicillin and Vancomycin as experimental group, and the cultured cells were not added with any drugs as control group, and the same amount of Staphylococcus aureus colonies were added then cultured in an incubator under 37° C. The different time of bacteria concentrations (OD630) were tested to investigate the antibiotic inhibitory effect of Fmoc-Ala-OPfp, Ampicillin and Vancomycin.
Only a small amount (1 μg/ml) of Fmoc-Ala-OPfp was added in the culture medium.

In a further data set the test system is human red blood cells. The experiment in a line: Hemolytic test. It is filed as cell-based. To be noted: at 100 μg/ml; human red blood cells 2% (V/V), 37° C., 1 hour, O.D. 490 nm. The procedure:
Fresh human red blood cells were washed by 0.9% physiological saline for three times, then were dissolved into 2% (V/V) physiological saline, and 50 μL red blood cells suspension and 50 μL of the compound (10, 50 and 100 μg/ml of antibiotic Fmoc-Ala-OPfp) and Triton X-100 was added into the 96-well tray, wherein the final concentration of red blood cells was 2% (V/V). The sample was slightly shaking in the incubator under 37° C. for 1 hour and centrifuged with 2000 g for 30 minutes. 50 μL sample suspension was dropped into a new 96-well tray and the O.D. 490 nm absorbance was measured. The physiological saline and Triton X-100 was negative control group and positive control group, respectively.

Data set [1] deals with Mammalian cell line L292 and MEF cell lines. The experiment in a line: MTT assay cytotoxicity (survival analysis). To be noted: 100 μg/mL, 24 hours, 570 nm absorbance. It is filed as cell-based, human. The procedure: Mammalian cell line L292 and MEF cell lines were cultured in Dulbecco's modified Eagle culture medium, wherein the culture medium was added with 100 μg/mL streptomycin, 100 U/mL penicillin and 10% (v/v) fetal bovine serum, and then the cell lines were cultured the in 5% CO2 containing humidified incubator under 37° C.
MTT assay was used for investigating the cytotoxicity of compound on mammalian cells. The cells were cultured at 96-well tray with 100 μL culture medium for 24 hours after sterilization, then the cells were cultured in the diluted culture medium for 24 hours. 3-(4,5-dimethylthiazol-2yl)-2,5-diphenyltetrazolium bromide (MTT) was added into each well of 96-well tray and incubated for 4 hours. The cell suspension was removed and 100 μL dimethyl sulfoxide was added for dissolving all the precipitate. Enzyme immunoassay instrument was used for measure the 570 nm absorbance.
A general note: Formazan colour is commonly taken as a measure of viable cells.

On to `C[C@H](NC(=O)OCC1c2ccccc2-c2ccccc21)C(=O)Oc1c(F)c(F)c(F)c(F)c1F` [Fmoc-Ala-OPfp, N-(9-fluorenylmethoxycarbonyl)-L-alanine pentafluorophenyl], for which the “antibiotic effect (inhibition of bacteria growth, OD630)” value in the data set on Staphylococcus aureus is “equivalent to 5.3 μg/ml of ampicillin and 5.3 μg/ml vancomycin”. The hemolytic activity result with human red blood cells is recorded as “low hemolytic activity”. Further, in data set [1], the “cell toxicity on MTT assay” value is recorded as 10-20%.
